Read-outs that look alike come from different tables or passages of the source.
Legend:
[1] = test system: heart rate and blood pressure; experiment: Heart rate and blood pressure changes of rats induced by guaiacoxypropanolamines; format: in vivo; conditions: 1.0 mg/kg iv, means ± SE (n = 8)
[2] = target: T1, Isolated Guinea Pig Atria (Cavia porcellus, UniProt H0W3H1); experiment: pA2 on isolated guinea pig atria; format: cell-based; conditions: for Kb / pA2, positive chronotropic / pA2, positive inotropic: isolated guinea pig atria; for Potency ratio (PR), positive chronotropic / Potency ratio (PR), positive inotropic: with respect to propranolol
T1 construct: Isolated Guinea Pig Atria; from tissue; host or cells: guinea pig atria (isolated organ)
Excerpt: The determination of the pA2 is made from experiments in which a fixed concentration of the antagonist is used along with graded concentrations of an agonist acting on the same receptor. The presence of the antagonist shifts the agonist dose-response curve to the right.

[3] = read-out: pA2, positive chronotropic (converted)
[4] = read-out: pA2, positive inotropic (converted)

T1 sequence (H0W3H1 1-470): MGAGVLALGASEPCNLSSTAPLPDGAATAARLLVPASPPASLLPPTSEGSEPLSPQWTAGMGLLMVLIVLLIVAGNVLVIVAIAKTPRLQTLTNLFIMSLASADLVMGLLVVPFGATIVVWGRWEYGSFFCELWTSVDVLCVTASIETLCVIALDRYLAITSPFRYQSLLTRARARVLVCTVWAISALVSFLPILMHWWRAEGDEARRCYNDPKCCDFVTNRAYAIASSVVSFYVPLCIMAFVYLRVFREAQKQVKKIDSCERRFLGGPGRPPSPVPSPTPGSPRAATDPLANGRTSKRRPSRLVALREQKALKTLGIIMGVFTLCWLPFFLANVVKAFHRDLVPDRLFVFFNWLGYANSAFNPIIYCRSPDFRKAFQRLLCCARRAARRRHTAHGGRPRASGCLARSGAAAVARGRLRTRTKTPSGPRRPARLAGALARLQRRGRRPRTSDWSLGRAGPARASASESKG

| Kb [2, 3] [nM] | Kb [2, 4] [nM] | Potency ratio (PR), positive chronotropic [2] | Potency ratio (PR), positive inotropic [2] | pA2, positive chronotropic [2] | pA2, positive inotropic [2] | Compound | change in BP ([1]; 5 min after dosing) [mmHg] | change in HR ([1]; 5 min after dosing) [beats/min] | change in BP ([1]; 10 min after dosing) [mmHg] | change in HR ([1]; 10 min after dosing) [beats/min] | change in BP ([1]; 15 min after dosing) [mmHg] | change in HR ([1]; 15 min after dosing) [beats/min] | change in BP ([1]; 30 min after dosing) [mmHg] | change in HR ([1]; 30 min after dosing) [beats/min] | change in BP ([1]; 60 min after dosing) [mmHg] | change in HR ([1]; 60 min after dosing) [beats/min] |
| --- | --- | --- | --- | --- | --- | --- | --- | --- | --- | --- | --- | --- | --- | --- | --- | --- |
| 295 | 74.1 | 0.03 | 0.05 | – | – | CCCCCCCCC(=O)NCc1ccc(OCC(O)CNC)c(OC)c1 (stereo not drawn) [NHCH3, N-[4-o-(2-hydroxy-3-(methylamino)propoxy)-3-methoxybenzyl]-nonamide] | -1.11 ± 2.31 | -34.56 ± 6.79 | -0.22 ± 2.10 | -17.33 ± 5.31 | -0.56 ± 1.65 | -12.22 ± 4.33 | 1.89 ± 2.14 | 14.56 ± 7.73 | 0.78 ± 1.37 | 4.78 ± 4.37 |
| – | – | 0.07 | 0.07 | 6.93 ± 0.09 | 7.27 ± 0.09 | CCCCCCCCC(=O)NCc1ccc(OCC(O)CNCC)c(OC)c1 (stereo not drawn) [NHC2 H5, N-[4-o-(2-hydroxy-3-(ethylamino)propoxy)-3-methoxybenzyl]-nonamide] | 7.44 ± 3.16 | -38.33 ± 5.94 | 2.56 ± 2.56 | -32.22 ± 5.36 | 1.11 ± 1.78 | -28.00 ± 7.02 | -2.44 ± 3.05 | -21.11 ± 8.75 | 1.88 ± 1.62 | 2.56 ± 11.66 |
| 93.3 | 25.1 | 0.08 | 0.15 | – | – | C=CCNCC(O)COc1ccc(CNC(=O)CCCCCCCC)cc1OC (stereo not drawn) [NHC3 H5, N-[4-0-(2-hydroxy-3-(allylamino)propoxy)-3-methoxybenzyl]-nonamide] | -1.56 ± 2.03 | -36.78 ± 11.25 | -2.67 ± 1.96 | -28.22 ± 9.00 | -1.89 ± 2.04 | -19.89 ± 9.26 | -1.11 ± 2.62 | -5.00 ± 8.72 | 4.78 ± 4.96 | -7.56 ± 4.14 |
| 39.8 | 15.8 | 0.19 | 0.24 | – | – | CCCCCCCCC(=O)NCc1ccc(OCC(O)CNC(C)(C)C)c(OC)c1 (stereo not drawn) [NH-t-C4 H9, N-[4-o-(2-hydroxy-3-(tert-butylamino)propoxy)-3-methoxybenzyl]-nonamide] | 3.13 ± 5.66 | -45.00 ± 4.20 | 3.38 ± 5.08 | -37.75 ± 4.44 | 2.38 ± 5.41 | -29.50 ± 5.31 | 1.25 ± 5.45 | -24.88 ± 8.47 | 4.63 ± 3.51 | -18.50 ± 5.13 |

The next lines start with the molecule.

| Compound | Kb [2, 3] [nM] | Kb [2, 4] [nM] | Potency ratio (PR), positive chronotropic [2] | Potency ratio (PR), positive inotropic [2] | pA2, positive chronotropic [2] | pA2, positive inotropic [2] | change in BP ([1]; 5 min after dosing) [mmHg] | change in HR ([1]; 5 min after dosing) [beats/min] | change in BP ([1]; 10 min after dosing) [mmHg] | change in HR ([1]; 10 min after dosing) [beats/min] | change in BP ([1]; 15 min after dosing) [mmHg] | change in HR ([1]; 15 min after dosing) [beats/min] | change in BP ([1]; 30 min after dosing) [mmHg] | change in HR ([1]; 30 min after dosing) [beats/min] | change in BP ([1]; 60 min after dosing) [mmHg] | change in HR ([1]; 60 min after dosing) [beats/min] |
| --- | --- | --- | --- | --- | --- | --- | --- | --- | --- | --- | --- | --- | --- | --- | --- | --- |
| CCCCCCCCC(=O)NCc1ccc(OCC(O)CNCCCC)c(OC)c1 (stereo not drawn) [NH-n-C4 H9, N-[4-o-(2-hydroxy-3-(n-butylamino)propoxy)-3-methoxybenzyl]-nonamide] | 58.9 | 53.7 | 0.13 | 0.07 | – | – | -0.22 ± 1.74 | -40.00 ± 3.74 | -1.22 ± 1.59 | -33.78 ± 5.08 | -1.22 ± 1.77 | -26.22 ± 6.56 | 0.11 ± 1.54 | -15.33 ± 5.24 | 3.33 ± 2.82 | -3.67 ± 2.55 |
| CCCCCCCCC(=O)NCc1ccc(OCC(O)CNC(C)C)c(OC)c1 (stereo not drawn) [NH-i-C3 H7, N-[4-o-(2-hydroxy-3-(isopropylamino)propoxy)-3-methoxybenzyl]-nonamide] | 17 | 8.51 | 0.45 | 0.45 | – | – | -0.44 ± 2.05 | -50.22 ± 7.29 | -1.22 ± 2.29 | -40.78 ± 7.64 | -2.89 ± 2.03 | -35.44 ± 7.32 | -6.67 ± 2.51 | -32.67 ± 9.24 | -1.33 ± 0.98 | -20.00 ± 6.15 |
| CCCCCCCCC(=O)NCc1ccc(OCC(O)CNC2CCCCC2)c(OC)c1 (stereo not drawn) [NH-c-C6 H11, N-[4-o-(2-hydroxy-3-(cyclohexylamino)propoxy)-3-methoxybenzyl]-nonamide] | – | – | – | – | – | – | -4.11 ± 2.89 | -32.33 ± 15.44 | -4.22 ± 2.29 | -28.44 ± 16.54 | -3.67 ± 2.39 | -11.67 ± 9.26 | 1.33 ± 2.69 | -1.78 ± 8.96 | 0.67 ± 2.45 | 2.78 ± 9.64 |
| CCCCCCCCC(=O)NCc1ccc(OCC(O)CNCCCCC)c(OC)c1 (stereo not drawn) [NH-n-C5 H11, N-[4-o-(2-hydroxy-3-(n-pentylamino)propoxy)-3-methoxybenzyl]-nonamide] | – | – | 0.12 | 0.14 | 7.19 ± 0.02 | 7.55 ± 0.04 | -4.67 ± 1.71 | -25.11 ± 5.81 | -1.67 ± 1.87 | -23.33 ± 2.41 | -0.88 ± 3.00 | -10.22 ± 2.38 | 3.67 ± 2.66 | -5.78 ± 7.89 | 2.44 ± 1.96 | -6.56 ± 4.38 |
| CCCCCCCCC(=O)NCc1ccc(OCC(O)CNC(C)CC)c(OC)c1 (stereo not drawn) [NH-s-C4 H9, N-[4-o-(2-hydroxy-3-(sec-butylamino)propoxy)-3-methoxybenzyl]-nonamide] | 120 | 22.4 | 0.07 | 0.17 | – | – | 4.11 ± 2.76 | -38.56 ± 11.30 | 4.89 ± 3.37 | -35.44 ± 12.46 | 3.33 ± 3.74 | -32.33 ± 11.96 | -0.88 ± 3.11 | -25.11 ± 9.49 | 1.22 ± 1.47 | -9.56 ± 7.03 |
| CCCCCCCCC(=O)NCc1ccc(OCC(O)CNCCC)c(OC)c1 (stereo not drawn) [NH-n-C3 H7, N-[4-o-(2-hydroxy-3-(n-propylamino)propoxy)-3-methoxybenzyl]-nonamide] | – | – | 0.05 | 0.21 | 6.79 ± 0.01 | 7.75 ± 0.07 | -1.78 ± 1.71 | -42.56 ± 7.65 | -2.56 ± 1.47 | -35.33 ± 6.05 | -3.11 ± 1.81 | -32.00 ± 5.25 | -2.44 ± 1.66 | -14.11 ± 5.16 | -0.56 ± 0.50 | -6.89 ± 4.32 |
| CCCCCCCCC(=O)NCc1ccc(OCC(O)CNCC(C)C)c(OC)c1 (stereo not drawn) [NH-i-C4 H9, N-[4-o-(2-hydroxy-3-(iso-butylamino)propoxy)-3-methoxybenzyl]-nonamide] | 117 | 26.9 | 0.06 | 0.14 | – | – | -2.75 ± 2.29 | -39.88 ± 8.60 | 1.63 ± 2.07 | -35.25 ± 7.98 | 1.63 ± 1.71 | -27.13 ± 7.76 | 2.00 ± 1.86 | 4.13 ± 8.20 | 0.25 ± 1.91 | 3.13 ± 7.90 |
| CCCCCCCCC(=O)NCc1ccc(OCC(O)CNCCCCCC)c(OC)c1 (stereo not drawn) [NH-n-C6 H13, N-[4-o-(2-hydroxy-3-(n-hexylamino)propoxy)-3-methoxybenzyl]-nonamide] | 933 | 66.1 | 0.01 | 0.06 | – | – | -2.22 ± 1.42 | -35.56 ± 8.71 | -2.89 ± 1.61 | -24.11 ± 3.31 | -4.44 ± 2.93 | -14.89 ± 7.10 | -2.11 ± 2.77 | -12.67 ± 6.59 | 1.89 ± 1.13 | -8.00 ± 5.64 |
| CCCCCCCCC(=O)NCc1ccc(OCC(O)CNC2CC2)c(OC)c1 (stereo not drawn) [NH-c-C3 H5, N-[4-o-(2-hydroxy-3-(cyclopropylamino)propoxy)-3-methoxybenzyl]-nonamide] | – | – | – | – | – | – | -0.11 ± 1.09 | -47.67 ± 8.88 | 3.11 ± 2.78 | -38.89 ± 9.47 | 3.89 ± 2.92 | -23.67 ± 10.01 | 3.67 ± 4.10 | -11.89 ± 8.73 | 2.22 ± 2.32 | -2.67 ± 4.14 |
